For experiment [1], the system named is psoriasis vulgaris model (transplanted psoriasis skin damage). In words: Psoriasis vulgaris model: SCID mice transplanted with patient psoriasis skin, HE histology and Baker scores. The class given is in vivo. How it is done:
Female and male SCID mice were separately fed for one week, and allowed to adapt growing environment. Patients with psoriasis vulgaris or plaque-type psoriasis were chosen (indentifying the informed consent). […] Aseptic packaging was wrapped up with bandage macerated with normal saline, to prepare for transplantation. According to the body weight of SCID mice, 3% chloral hydrate (0.1 ml/10 g) was administrated, followed by skin preparation and unhair. […] After transplantation of skin, mice were raised in separated cages, and all processes were finished within 2 h. After 10 days, skin damage arounding was injected with PBMC (1×10^6/mouse) provided by transplantation supplier and treated with ConA. After two weeks, exterior packing was dismantled to observe the survival situation of skin and confirm the success of model establishment, and the successful model was used for further experiment. […] The administration was kept for 10 days. […] Skin damage was trimmed into suitable size, dehydrated, embedded, sliced, and stained with HE. […] Baker scores were calculated, and the difference in data of each group was compared. All values were processed using SPSS13.0 software, and the experimental results were presented as x±s. p<0.05 was considered to be a statistical difference. The mean of multi-samples was compared using analysis of variance.

For another experiment, the system named is VEGF. Description: Psoriasis vulgaris model: VEGF levels in serum. The format is in vivo, SCID mice. The following applies: after 10 days administration, x ± s, n = 10. From the text: Female and male SCID mice were separately fed for one week, and allowed to adapt growing environment. Patients with psoriasis vulgaris or plaque-type psoriasis were chosen (indentifying the informed consent). Dermatochalasis containing 2 cm×2 cm psoriasis skin damage in patients was chosen to make a fusiform incision, and full-thickness of skin was cut and trimmed into free skin graft with a suitable thickness of 0.6 cm×0.6 cm. Aseptic packaging was wrapped up with bandage macerated with normal saline, to prepare for transplantation. According to the body weight of SCID mice, 3% chloral hydrate (0.1 ml/10 g) was administrated, followed by skin preparation and unhair. Epidermis was scissored and cut into fascia layer, and the trimmed skin graft was sutured using 3-0 silk thread and subjected to pressure dressing with cotton ball soaking with normal saline. After transplantation of skin, mice were raised in separated cages, and all processes were finished within 2 h. After 10 days, skin damage arounding was injected with PBMC (1×10^6/mouse) provided by transplantation supplier and treated with ConA. […]
Before sacrificing guinea pigs, blood was taken and centrifuged under 2000r/rain, to collect serum. Using ELISA kit, optical density was detected as instructions in kit. The results were calculated by standard curve, and the ratio of cAMP/cGMP was calculated according to the results. […]

In another experiment the test system is cAMP and cGMP in serum. In words: Psoriasis vulgaris model: content and ratio of cAMP and cGMP in serum (ELISA). The class given is in vivo, SCID mice. The following applies: x ± s, n = 10. From the text:
Female and male SCID mice were separately fed for one week, and allowed to adapt growing environment. Patients with psoriasis vulgaris or plaque-type psoriasis were chosen (indentifying the informed consent). Dermatochalasis containing 2 cm×2 cm psoriasis skin damage in patients was chosen to make a fusiform incision, and full-thickness of skin was cut and trimmed into free skin graft with a suitable thickness of 0.6 cm×0.6 cm. Aseptic packaging was wrapped up with bandage macerated with normal saline, to prepare for transplantation. According to the body weight of SCID mice, 3% chloral hydrate (0.1 ml/10 g) was administrated, followed by skin preparation and unhair. Epidermis was scissored and cut into fascia layer, and the trimmed skin graft was sutured using 3-0 silk thread and subjected to pressure dressing with cotton ball soaking with normal saline. After transplantation of skin, mice were raised in separated cages, and all processes were finished within 2 h. After 10 days, skin damage arounding was injected with PBMC (1×10^6/mouse) provided by transplantation supplier and treated with ConA. After two weeks, exterior packing was dismantled to observe the survival situation of skin and confirm the success of model establishment, and the successful model was used for further experiment.
The administration was kept for 10 days.
Before sacrificing guinea pigs, blood was taken and centrifuged under 2000r/rain, to collect serum. Using ELISA kit, optical density was detected as instructions in kit. The results were calculated by standard curve, and the ratio of cAMP/cGMP was calculated according to the results.
All values were processed using SPSS13.0 software, and the experimental results were presented as x±s. p<0.05 was considered to be a statistical difference. The mean of multi-samples was compared using analysis of variance.

The mark [2] stands for this setting: transplanted skin, HE stain, after 10 days administration.
Where [3] appears, read: serum, ELISA, after 10 days administration.

Marks after values point to notes of the source that are not given here.

For `COc1cc(C)c(/C=C/C(C)=C/C=C/C(C)=C/C(=O)O)c(C)c1C` [Positive control, Acitretin A capsule], the Number of acanthocytes in experiment [1] (10 days administration, x ± s, n = 10) was 27.09 ± 8.83^a. Besides, in experiment [1] (surrounding superficial layer blood vessels in dermis, 200 times visual fields, 10 days administration, x ± s, n = 10), the “Monocytes (count)” value is on record as 66.40 ± 9.28^a. The Baker scores in experiment [1] (test drugs 100 mg/kg intragastric once a day, positive control 2.25 mg/kg twice a day, 10 days, x ± s, n = 10) is 6.39 ± 1.53^a. Moreover, in experiment [1] (setting [2]), the “degree of parakeratosis under light microscope” value is “middle degree of parakeratosis”; the “epidermis wooden stick-like hyperplasia” value is on record as “middle degree of wooden stick-like hyperplasia”; the “monocyte infiltration surrounding blood vessels in dermis” value was “small amounts of monocyte infiltration”; the punctiform granular layer result was “local visible punctiform granular layer and hyperkeratinization”. In addition, the spinous layer thickness in experiment [1] (setting [2]) was 24-32 layers. The “VEGF levels in serum” value in the experiment with VEGF is 93.40 ± 6.54^ab pg/m1. The cAMP/cGMP in the experiment on cAMP and cGMP in serum (ratio of serum contents) is given as 3.02 ± 0.08^ab. Further, in the experiment with cAMP and cGMP in serum (setting [3]), the cAMP in serum is on record as 10.22 ± 0.73^ab pmol/m1 and the cGMP in serum is 3.38 ± 0.20^ab pmol/m1.

The values above are taken from patent US20180021395A1, “EUCOMMIA LEAF EXTRACT, AND PREPARATION METHOD AND USE THEREOF” (SICHUAN JIUZHANG BIOLOGICAL SCIENCE AND TECHNOLOGY CO., LTD, priority 2015, published 2018).
